Reference: ChEMBL document CHEMBL5370584, “Reprogramming Energy Metabolism with Synthesized PDK Inhibitors Based on Dichloroacetate Derivatives and Targeted Delivery Systems for Enhanced Cancer Therapy” (J Med Chem, 2023)
Activity calls are given as the source filed them. The rule behind the calls is not given here.

What was measured:
[1] = Toxicity in BALB/c mouse assessed as effect on UA level at 0.15 to 1.5 mg/kg measured upto 16 days; assay type: organism-based; conditions: in vivo, 384 h, dose 0.15-1.5 mg/kg, time < 16 day
COS-7 [2] = assay: Effect on PDK1 expression in African monkey COS7 cells at 12 uM measured after 24 hrs; assay type: functional, cell-based; conditions: Chlorocebus aethiops
COS-7 [3] = assay: Effect on phosphorylation of PDH expression at Serine 293 residues in African monkey COS7 cells at 12 uM measured after 24 hrs; assay type: functional, cell-based; conditions: Chlorocebus aethiops
COS-7 [4] = assay: Effect on PDK4 expression in African monkey COS7 cells at 12 uM measured after 24 hrs; assay type: functional, cell-based; conditions: Chlorocebus aethiops
4T1 [5] = assay: Inhibition of PDK4 expression in mouse 4T1 cells at 4 uM incubated for 24 hrs by Western blot analysis; assay type: functional, cell-based
[6] = target: [Pyruvate dehydrogenase (acetyl-transferring)] kinase isozyme 2, mitochondrial (Mus musculus) (UniProt Q9JK42); assay: Inhibition of PDK2 transcription in mouse 4T1 cells at 4 uM incubated for 24 hrs by qPCR analysis; assay type: cell-based
4T1 [7] = assay: Induction of mitochondrial respiration in mouse 4T1 cells assessed as increase in glucose uptake at 2 to 6 uM incubated for 18 hrs followed by 6 hrs incubation in serum free high glucose medium by glucose uptake assay; assay type: functional, cell-based; conditions: dose 2-6 µM, time 24.0 hrs
COS-7 [8] = assay: Effect on PHDC expression in African monkey COS7 cells at high concentration measured after 6 hrs; assay type: functional, cell-based; conditions: Chlorocebus aethiops
4T1 [9] = assay: Induction of apoptosis in mouse 4T1 cells assessed as activation of cytochrome C release from mitochondria to cytosol at 1 to 4 uM incubated for 12 hrs; assay type: functional, cell-based; conditions: dose 1-4 µM
4T1 [10] = assay: Antitumor activity against mouse 4T1 cells xenografted in BALB/c mouse model assessed as reduction in hepatosplenomegaly by measuring organ coefficient at 0.15 to 1.5 mg/kg; assay type: functional, organism-based; conditions: dose 0.15-1.5 mg/kg
[11] = Toxicity in BALB/c mouse assessed as effect on CREA level at 0.15 to 1.5 mg/kg measured upto 16 days; assay type: organism-based; conditions: in vivo, 384 h, dose 0.15-1.5 mg/kg, time < 16 day
4T1 [12] = assay: Downregulation of PHDC at Ser293 residues in mouse 4T1 cells at 4 uM incubated for 24 hrs by Western blot analysis; assay type: functional, cell-based
[13] = Toxicity in BALB/c mouse assessed as effect on ALT level at 0.15 to 1.5 mg/kg measured upto 16 days; assay type: organism-based; conditions: in vivo, 384 h, dose 0.15-1.5 mg/kg, time < 16 day
4T1 [14] = assay: Upregulation of p53 level in mouse 4T1 cells at 4 uM incubated for 24 hrs; assay type: functional, cell-based
[15] = Selectivity ratio of IC50 mouse 4T1 cells to IC50 for African green monkey COS7 cells
[16] = target: [Pyruvate dehydrogenase (acetyl-transferring)] kinase isozyme 1, mitochondrial (Mus musculus) (UniProt Q8BFP9); assay: Inhibition of PDK1 transcription in mouse 4T1 cells at 4 uM incubated for 24 hrs by qPCR analysis; assay type: cell-based
Sequence of [Pyruvate dehydrogenase (acetyl-transferring)] kinase isozyme 1, mitochondrial (Mus musculus) (Q8BFP9 whole entry): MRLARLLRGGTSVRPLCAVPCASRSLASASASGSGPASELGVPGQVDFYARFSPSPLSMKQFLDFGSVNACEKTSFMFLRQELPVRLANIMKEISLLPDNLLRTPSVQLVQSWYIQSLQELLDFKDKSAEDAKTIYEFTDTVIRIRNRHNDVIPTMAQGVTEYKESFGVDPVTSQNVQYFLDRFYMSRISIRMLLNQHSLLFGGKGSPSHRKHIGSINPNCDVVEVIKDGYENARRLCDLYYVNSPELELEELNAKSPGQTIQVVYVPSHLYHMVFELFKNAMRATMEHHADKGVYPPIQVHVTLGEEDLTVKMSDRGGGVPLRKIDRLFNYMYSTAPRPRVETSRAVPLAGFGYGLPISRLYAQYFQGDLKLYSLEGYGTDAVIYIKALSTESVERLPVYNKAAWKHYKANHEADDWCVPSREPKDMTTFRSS

In the case of O=C(CCCCCNC(=O)C(Cl)Cl)Nc1ccc([As]2SCCCS2)cc1, the Activity [1] is reported as “Non-Toxic”, the Activity (COS-7 [2]) is reported as “inactive” and the Activity (COS-7 [3]) is reported as “inactive”. For the same compound, the Activity (COS-7 [4]) was “inactive”, the inhibition (4T1 [5]) was “Active” and the inhibition [6] was “Active”. For the same compound, the Activity (4T1 [7]) was “Active”, the Activity (COS-7 [8]) was “inactive” and the Activity (4T1 [9]) was “Active”. For the same compound, the Activity (4T1 [10]) was “Active”, the Activity [11] was “Non-Toxic” and the Activity (4T1 [12]) was “Active”. For the same compound, the Activity [13] was “Non-Toxic”, the Activity (4T1 [14]) was “Active” and the “Ratio IC50” value [15] was 6. For the same compound, the inhibition [16] was “Active”.
